Experimental data: US11078215B2, “Crystalline forms of lorlatinib maleate” (Pfizer Inc., priority 2016, dated 2021)
Structures can show the parent of a compound that is named as a salt.

Assays:
[1] = Slurry experiments, thermodynamic stability of anhydrous lorlatinib maleate (Form 1); format: physicochemical
Procedure: The thermodynamic stability of anhydrous lorlatinib maleate (Form 1) and lorlatinib maleate hydrate (Form 2) was evaluated employing slurry experiments under a range of water activity and temperature conditions. Suspensions of Form 1 were equilibrated for two weeks in acetonitrile/water and methanol/water solvent systems with water activities (Aw) in the range of 0.1 to 0.9, at three different temperatures: 5° C., room temperature and 40° C. After 2 weeks, the solids in equilibrium were isolated and solid form was evaluated by PXRD.
Even a minimal amount of water (Aw=0.1) was sufficient to cause conversion of Form 1 to Form 2.

[2] = Solid-state physical stability of Form 1 API at temperature/% RH, form checked by PXRD; format: physicochemical; conditions: for Solid Form (accelerated stability, PXRD): API
Excerpt: The physical stability of anhydrous lorlatinib maleate (Form 1) API was investigated at a variety of temperatures and percent relative humidities (% RH). […]

[3] = Physical stability of Form 1 in excipient mixtures and tablets at 50° C./75% RH, PXRD; format: physicochemical; conditions: for Output Solid Form: 1 week
Procedure: Binary and tertiary mixtures of Form 1 with various excipients were stored at 50° C./75% RH and solid form changes were monitored using PXRD.

[4] = Slurry experiments, thermodynamic stability of anhydrous lorlatinib maleate (Form 1); format: physicochemical; conditions: 2 weeks
[5] = Physical stability of Form 1 in excipient mixtures and tablets at 50° C./75% RH, PXRD; format: physicochemical; conditions: 2 weeks
[6] = Physical stability of Form 1 drug product vs. acetic acid solvate drug product
Excerpt: The physical stabilities of Form 1 and lorlatinib acetic acid solvate as drug product were investigated under a variety of conditions.

## C[C@H]1Oc2cc(cnc2N)-c2c(nn(C)c2C#N)CN(C)C(=O)c2ccc(F)cc21 [anhydrous lorlatinib maleate (Form 1), Anhydrous (10R)-7-amino-12-fluoro-2,10,16-trimethyl-15-oxo-10,15,16,17-tetrahydro-2H-8,4-(metheno)pyrazolo[4,3-h][2,5,11]benzoxadiazacyclotetradecine-3-carbonitrile (PF-06463922) Maleate (Form 1)]
[1]; acetonitrile, Aw 0, 5° C., 2 weeks
  Slurry output, solid form by PXRD: Form 1
[1]; acetonitrile, Aw 0, 40° C., 2 weeks
  Slurry output, solid form by PXRD: Form 1
[1]; acetonitrile/water, Aw 0.1, 5° C., 2 weeks
  Slurry output, solid form by PXRD: Form 2
[1]; acetonitrile/water, Aw 0.1, 40° C., 2 weeks
  Slurry output, solid form by PXRD: Form 2
[1]; acetonitrile/water, Aw 0.1, RT, 2 weeks
  Slurry output, solid form by PXRD: Form 2
[1]; acetonitrile/water, Aw 0.3, 5° C., 2 weeks
  Slurry output, solid form by PXRD: Form 2
[1]; acetonitrile/water, Aw 0.3, 40° C., 2 weeks
  Slurry output, solid form by PXRD: Form 2
[1]; acetonitrile/water, Aw 0.3, RT, 2 weeks
  Slurry output, solid form by PXRD: Form 2
[1]; acetonitrile/water, Aw 0.5, 5° C., 2 weeks
  Slurry output, solid form by PXRD: Form 2
[1]; acetonitrile/water, Aw 0.5, 40° C., 2 weeks
  Slurry output, solid form by PXRD: Form 2
[1]; acetonitrile/water, Aw 0.5, RT, 2 weeks
  Slurry output, solid form by PXRD: Form 2
[1]; acetonitrile/water, Aw 0.75, 5° C., 2 weeks
  Slurry output, solid form by PXRD: Form 2
[1]; acetonitrile/water, Aw 0.75, 40° C., 2 weeks
  Slurry output, solid form by PXRD: Form 2
[1]; acetonitrile/water, Aw 0.75, RT, 2 weeks
  Slurry output, solid form by PXRD: Form 2
[1]; acetonitrile/water, Aw 0.9, 5° C., 2 weeks
  Slurry output, solid form by PXRD: Form 2
[1]; acetonitrile/water, Aw 0.9, 40° C., 2 weeks
  Slurry output, solid form by PXRD: Form 2
[1]; acetonitrile/water, Aw 0.9, RT, 2 weeks
  Slurry output, solid form by PXRD: Form 2
[1]; anhydrous conditions (Aw=0)
  Form conversion in slurry (summary): no conversion to the hydrate Form 2 detected
[1]; methanol, Aw 0, 5° C., 2 weeks
  Slurry output, solid form by PXRD: Form 1
[1]; methanol, Aw 0, RT, 2 weeks
  Slurry output, solid form by PXRD: Form 1
[1]; methanol/water, Aw 0.1, 5° C., 2 weeks
  Slurry output, solid form by PXRD: Form 2
[1]; methanol/water, Aw 0.1, 40° C., 2 weeks
  Slurry output, solid form by PXRD: solvate
[1]; methanol/water, Aw 0.1, 40° C., 2 weeks, listed as Form 1
  Slurry output, solid form by PXRD: solvated material
[1]; methanol/water, Aw 0.1, RT, 2 weeks
  Slurry output, solid form by PXRD: Form 2
[1]; methanol/water, Aw 0.3, 5° C., 2 weeks
  Slurry output, solid form by PXRD: Form 2
[1]; methanol/water, Aw 0.3, 40° C., 2 weeks
  Slurry output, solid form by PXRD: solvate
[1]; methanol/water, Aw 0.3, 40° C., 2 weeks, listed as Form 1
  Slurry output, solid form by PXRD: solvated material
[1]; methanol/water, Aw 0.3, RT, 2 weeks
  Slurry output, solid form by PXRD: Form 2
[1]; methanol/water, Aw 0.5, 5° C., 2 weeks
  Slurry output, solid form by PXRD: Form 2
[1]; methanol/water, Aw 0.5, 40° C., 2 weeks
  Slurry output, solid form by PXRD: Form 2
[1]; methanol/water, Aw 0.5, RT, 2 weeks
  Slurry output, solid form by PXRD: Form 2
[1]; methanol/water, Aw 0.75, 5° C., 2 weeks
  Slurry output, solid form by PXRD: Form 2
[1]; methanol/water, Aw 0.75, 40° C., 2 weeks
  Slurry output, solid form by PXRD: Form 2
[1]; methanol/water, Aw 0.75, RT, 2 weeks
  Slurry output, solid form by PXRD: Form 2
[1]; methanol/water, Aw 0.9, 5° C., 2 weeks
  Slurry output, solid form by PXRD: Form 2
[1]; methanol/water, Aw 0.9, 40° C., 2 weeks
  Slurry output, solid form by PXRD: Form 2
[1]; methanol/water, Aw 0.9, RT, 2 weeks
  Slurry output, solid form by PXRD: Form 2
[1]; water activities 0.1 to 0.9, temperatures from 5° C. to 40° C., 2 weeks
  Form conversion in slurry (summary): converts to the thermodynamically more stable lorlatinib maleate hydrate (Form 2)
[2]
  Stability with respect to lorlatinib maleate hydrate (Form 2): meta-stable
[2]; 25° C./60% RH without desiccation, 3 months
  Solid Form (accelerated stability, PXRD): Multiple new PXRD peaks were observed, which were consistent with Form 2
[2]; 40° C./75% RH without desiccation, 3 months
  Solid Form (accelerated stability, PXRD): nearly complete conversion to Form 2
[2]; 75% RH, ambient temperature, 6 months, listed as Form 1
  Solid Form (accelerated stability, PXRD): full conversion to Form 2
[2]; 75% RH, ambient temperature, 6 months, listed as anhydrous lorlatinib maleate Form 1
  Solid Form (accelerated stability, PXRD): Form 2
[2]; 90% RH, ambient temperature, 6 months, listed as Form 1
  Solid Form (accelerated stability, PXRD): full conversion to Form 2
[2]; 90% RH, ambient temperature, 6 months, listed as anhydrous lorlatinib maleate Form 1
  Solid Form (accelerated stability, PXRD): Form 2
[3]; binary mixture with stearic acid
  Output Solid Form: Form 2
[3]; mixtures containing magnesium stearate
  Solid form changes by PXRD (summary): form changes after 2 weeks
[3]; mixtures containing stearic acid
  Solid form changes by PXRD (summary): form changes after 1 week
[3]; tertiary mixture with stearic acid, lactose
  Output Solid Form: Form 2
[3]; tertiary mixture with stearic acid, mannitol
  Output Solid Form: Form 2
[4]; acetonitrile, Aw 0, RT
  Slurry output, solid form by PXRD: Form 1
[4]; methanol, Aw 0, 40° C.
  Slurry output, solid form by PXRD: Form 1
[5]; tablet with DCP, magnesium stearate, Explotab
  Output Solid Form: Form 1
[5]; tablet with DCP, magnesium stearate, Polyplasdone XL
  Output Solid Form: Form 1
[5]; tablet with DCP, stearic acid, Explotab
  Output Solid Form: Form 1
[5]; tablet with DCP, stearic acid, Polyplasdone XL
  Output Solid Form: Form 1
[5]; tablet with mannitol, stearic acid, Polyplasdone XL
  Output Solid Form: Form 1
[6]; drug product formulation
  Physical stability of representative drug product formulation relative to the acetic acid solvate of lorlatinib free base: superior physical stability
[6]; 50° C./75% RH, 2 weeks
  impurity (solid phase impurity), physical stability of drug product: ~10% impurity
[6]; 70° C./10% RH, 3 weeks
  impurity (solid phase impurity), physical stability of drug product: ~10% impurity
[6]; 70° C./40% RH, 2 weeks
  impurity (solid phase impurity), physical stability of drug product: ~10% impurity
[6]; 70° C./75% RH, 1 week
  impurity (solid phase impurity), physical stability of drug product: ~10% impurity
